According to the supplement of paper PMC11061612:

How the values were obtained:
Test in all cases: Bliss excess, mean over the matrix (fraction); higher = more synergy
[1] = system: A4-Fuk (B-Lymphoblastic Leukemia)
Outline: (§1)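 Bliss excess equals the observed combination effect minus the expected value EA + EB − EA·EB, where EA and EB are the effects of each agent alone. Combination Emax is the second-highest inhibition within the matrix. Inhibition was scaled from CellTiter-Glo 2.0 luminescence, with 0 set by vehicle wells and 1 by blank wells, after 72 hours of two-drug dosing of cells plated in 1536-well plates.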

[2] = system: COLO-668 (Small Cell Lung Carcinoma)
Outline: as §1

[3] = system: COLO-679 (Melanoma)
Outline: as §1

[4] = system: MDA-MB-453 (Breast Carcinoma)
Outline: as §1

[5] = system: ME-180 (Cervical Carcinoma)
Outline: as §1

[6] = system: ML-2 (Acute Myeloid Leukemia)
Outline: as §1

[7] = system: MOLT-4 (T-Lymphoblastic Leukemia)
Outline: as §1

[8] = system: Mo-T (Other Blood Carcinomas)
Outline: as §1

[9] = system: NCI-H1355 (Lung Adenocarcinoma)
Outline: as §1

[10] = system: NCI-H522 (Lung Adenocarcinoma)
Outline: as §1

[11] = system: OE33 (Esophageal Adenocarcinoma)
Outline: as §1

[12] = system: SK-N-AS (Neuroblastoma)
Outline: as §1

[13] = system: SKN (Other Solid Carcinomas)
Outline: as §1

SMILES	Bliss excess [1]	Bliss excess [2]	Bliss excess [3]	Bliss excess [4]	Bliss excess [5]	Bliss excess [6]	Bliss excess [7]	Bliss excess [8]	Bliss excess [9]	Bliss excess [10]	Bliss excess [11]	Bliss excess [12]	Bliss excess [13]
C=CCn1c(=O)c2cnc(Nc3ccc(N4CCN(C)CC4)cc3)nc2n1-c1cccc(C(C)(C)O)n1 [AZD1775] + CCc1c2c(nc3ccc(O)cc13)-c1cc3c(c(=O)n1C2)COC(=O)[C@]3(O)CC [SN-38] (first compound max 1 µM, partner max 0.3 µM)	-0.0617	-0.0448	-0.171	-0.0113	-0.0039	-0.0033	0.0188	-0.0799	-0.0622	0.0912	-0.0694	0.0032	-0.0126
C=CCn1c(=O)c2cnc(Nc3ccc(N4CCN(C)CC4)cc3)nc2n1-c1cccc(C(C)(C)O)n1 [AZD1775] + Nc1ccn([C@@H]2O[C@H](CO)[C@@H](O)C2(F)F)c(=O)n1 [Gemcitabine] (first compound max 1 µM, partner max 0.3 µM)	0.009	-0.0734	-0.067	-0.0309	0.0154	0.0482	0.0162	-0.0204	0.0478	0.0486	-0.0157	-0.0254	-0.0709
CN(CCO)CC[C@H](CSc1ccccc1)Nc1ccc(S(=O)(=O)NC(=O)c2ccc(N3CCC([C@@H](O)c4ccccc4-c4ccc(Cl)cc4)CC3)cc2)cc1S(=O)(=O)C(F)(F)F [AZD4320] + CS(=O)(=O)CCNCc1ccc(-c2ccc3ncnc(Nc4ccc(OCc5cccc(F)c5)c(Cl)c4)c3c2)o1 [Lapatinib] (first compound max 1 µM, 7x7, partner max 10 µM)	-0.0065	0.0881	-0.106	-0.0554	0.0726	0.0678	0.0886	0.0485	0.0077	-0.0206	0.0519	-0.0397	-0.0188
Cc1c2c(nn1C)CSCc1cc(n(C)n1)CSc1cc(c3ccccc3c1)OCCCc1c(C(=O)O)n(C)c3c-2c(Cl)ccc13 [AZD5991] + CC(=O)O[C@H]1C(=O)[C@@]2(C)[C@H]([C@H](OC(=O)c3ccccc3)[C@]3(O)C[C@H](OC(=O)[C@H](O)[C@@H](NC(=O)c4ccccc4)c4ccccc4)C(C)=C1C3(C)C)[C@]1(OC(C)=O)CO[C@@H]1C[C@@H]2O [Paclitaxel] (first compound max 1 µM, 7x7, partner max 3 µM)	-0.0069	0.028	0.0314	0.231	0.0258	0.0157	0.0219	-0.0521	-0.0431	0.056	-0.0386	-0.0065	-0.007
Cc1c2c(nn1C)CSCc1cc(n(C)n1)CSc1cc(c3ccccc3c1)OCCCc1c(C(=O)O)n(C)c3c-2c(Cl)ccc13 [AZD5991] + CS(=O)(=O)CCNCc1ccc(-c2ccc3ncnc(Nc4ccc(OCc5cccc(F)c5)c(Cl)c4)c3c2)o1 [Lapatinib] (first compound max 1 µM, 7x7, partner max 10 µM)	0.0199	0.0395	-0.149	0.0116	0.0624	0.0008	0.0254	-0.0344	0.0127	0.0118	-0.042	-0.0363	-0.0365
Cc1c2c(nn1C)CSCc1cc(n(C)n1)CSc1cc(c3ccccc3c1)OCCCc1c(C(=O)O)n(C)c3c-2c(Cl)ccc13 [AZD5991] + Nc1ccn([C@@H]2O[C@H](CO)[C@@H](O)C2(F)F)c(=O)n1 [Gemcitabine] (first compound max 1 µM, 7x7, partner max 0.3 µM)	-0.0182	-0.0674	-0.0703	0.0145	-0.036	0.0116	0.0224	-0.0226	-0.0333	0.091	0.0018	0.0183	-0.0331
C[C@@H]1COCCN1c1cc(C2([S@](C)(=N)=O)CC2)nc(-c2ccnc3[nH]ccc23)n1 [AZD6738] + C1CC(C1)(C(=O)[O-])C(=O)[O-].N.N.[Pt+2] [Carboplatin] (first compound max 10 µM, 7x7, partner max 10 µM)	-0.0571	0.025	-0.0944	-0.0327	-0.013	-0.0111	-0.013	-0.0272	-0.0345	-0.0584	-0.0416	-0.0538	-0.0766
C[C@@H]1COCCN1c1cc(C2([S@](C)(=N)=O)CC2)nc(-c2ccnc3[nH]ccc23)n1 [AZD6738] + Nc1ccn([C@@H]2O[C@H](CO)[C@@H](O)C2(F)F)c(=O)n1 [Gemcitabine] (first compound max 10 µM, 7x7, partner max 0.3 µM)	-0.0486	0.0525	-0.0611	-0.0251	0.0564	0.108	0.0315	0.002	0.0732	0.122	-0.0518	0.0469	0.0033
C[C@@H](Nc1cc(F)cc(F)c1)c1cc(C(=O)N(C)C)cc2c(=O)cc(N3CCOCC3)oc12 [AZD8186] + C1CN(CCC1(C(=O)N[C@@H](CCO)C2=CC=C(C=C2)Cl)N)C3=NC=NC4=C3C=CN4 [AZD5363] (first compound max 10 µM, 7x7, partner max 10 µM)	-0.0183	-0.002	-0.12	0.0219	-0.0133	-0.0217	-0.0083	-0.0393	-0.0244	-0.0426	-0.0329	-0.0294	-0.1
C[C@@H](Nc1cc(F)cc(F)c1)c1cc(C(=O)N(C)C)cc2c(=O)cc(N3CCOCC3)oc12 [AZD8186] + CC(=O)c1c(C)c2cnc(Nc3ccc(N4CCNCC4)cn3)nc2n(C2CCCC2)c1=O [Palbociclib] (first compound max 10 µM, 7x7, partner max 10 µM)	0.138	0.0261	-0.0735	0.0491	0.0177	0.103	0.0712	-0.0319	0.0321	-0.0596	0.0115	0.0334	0.0142
C[C@@H](Oc1cc(-c2cnn(C3CCNCC3)c2)cnc1N)c1c(Cl)ccc(F)c1Cl [Crizotinib] + CC1=C(C(=CC=C1)Cl)NC(=O)C2=CN=C(S2)NC3=CC(=NC(=N3)C)N4CCN(CC4)CCO [Dasatinib] (first compound max 10 µM, 7x7, partner max 2 µM)	-0.0089	-0.0289	-0.0604	-0.0494	0.038	-0.0165	-0.0209	-0.0588	-0.0431	-0.0033	0.0828	-0.0164	0.0295
C[C@@H](Oc1cc(-c2cnn(C3CCNCC3)c2)cnc1N)c1c(Cl)ccc(F)c1Cl [Crizotinib] + Cn1cnc2c(F)c(Nc3ccc(Br)cc3Cl)c(C(=O)NOCCO)cc21 [Selumetinib] (first compound max 10 µM, 7x7, partner max 10 µM)	-0.0021	0.0221	-0.0369	-0.0374	0.0308	-0.0083	-0.0843	-0.047	-0.0223	-0.0495	-0.0199	-0.0118	-0.0421
CS(=O)(=O)CCNCc1ccc(-c2ccc3ncnc(Nc4ccc(OCc5cccc(F)c5)c(Cl)c4)c3c2)o1 [Lapatinib] + Cn1cnc2c(F)c(Nc3ccc(Br)cc3Cl)c(C(=O)NOCCO)cc21 [Selumetinib] (first compound max 10 µM, 7x7, partner max 10 µM)	-0.045	-0.0388	-0.116	-0.0421	-0.028	-0.151	0.0852	-0.0542	-0.0323	-0.0304	-0.0143	0.0034	-0.0349
O=C(c1cc(Cc2n[nH]c(=O)c3ccccc23)ccc1F)N1CCN(C(=O)C2CC2)CC1 [Olaparib] + CC1(C)CCC(CN2CCN(c3ccc(C(=O)NS(=O)(=O)c4ccc(NCC5CCOCC5)c([N+](=O)[O-])c4)c(Oc4cnc5[nH]ccc5c4)c3)CC2)=C(c2ccc(Cl)cc2)C1 [Venetoclax] (first compound max 10 µM, 7x7, partner max 1 µM)	-0.0118	-0.0261	-0.0643	-0.0323	-0.0274	0.115	0.124	-0.0336	-0.0524	-0.0627	-0.0457	-0.031	-0.0516
O=C(c1cc(Cc2n[nH]c(=O)c3ccccc23)ccc1F)N1CCN(C(=O)C2CC2)CC1 [Olaparib] + CN(CC[C@H](CSC1=CC=CC=C1)NC2=C(C=C(C=C2)S(=O)(=O)NC(=O)C3=CC=C(C=C3)N4CCC(CC4)[C@H](C5=CC=CC=C5C6=CC=C(C=C6)Cl)O)S(=O)(=O)C(F)(F)F)CCO [AZD4320] (first compound max 10 µM, 7x7, partner max 1 µM)	-0.0428	0.0025	-0.0667	-0.0342	-0.021	0.0877	0.0581	-0.0065	-0.0336	-0.0566	-0.037	-0.0291	-0.0712
O=C(c1cc(Cc2n[nH]c(=O)c3ccccc23)ccc1F)N1CCN(C(=O)C2CC2)CC1 [Olaparib] + COc1nnc2ccc(N3CCC(c4ccc(OCCN5CCN(C)C(=O)[C@H]5C)cc4)CC3)nn12 [AZD5153] (first compound max 10 µM, 7x7, partner max 1 µM)	-0.0412	-0.0335	-0.0654	-0.0483	-0.0279	-0.0153	0.023	-0.0413	-0.11	-0.0528	-0.057	-0.0662	-0.0557
O=C(c1cc(Cc2n[nH]c(=O)c3ccccc23)ccc1F)N1CCN(C(=O)C2CC2)CC1 [Olaparib] + Cc1c2c(nn1C)CSCc1cc(n(C)n1)CSc1cc(c3ccccc3c1)OCCCc1c(C(=O)O)n(C)c3c-2c(Cl)ccc13 [AZD5991] (first compound max 10 µM, 7x7, partner max 1 µM)	-0.0387	-0.0495	-0.0555	-0.0038	-0.0363	0.0318	0.0336	-0.0492	-0.0595	-0.0062	-0.0543	-0.0347	-0.0407
Cc1nc(-c2cn3c(n2)-c2ccc(-c4cnn(C(C)(C)C(N)=O)c4)cc2OCC3)n(C(C)C)n1 [Taselisib] + O=C(Nc1ccc2[nH]nc(-c3ccncc3)c2c1)[C@@H]1CCN(CC(=O)N2CCN(c3ccc(-c4ncccn4)cc3)CC2)C1 [SCH772984] (first compound max 10 µM, 7x7, partner max 5 µM)	0.0883	0.0737	-0.0148	0.0207	0.0324	0.101	0.13	0.0526	-0.0124	0.057	0.0674	0.0187	-0.0535
